Like-named read-outs stand apart in the source and are kept apart here.
Columns and labels:
Rhizoctonia solani = Rhizoctonia solani test (in vitro)/microtiter plates, Example 2; conditions: 96 h, read-out: % efficacy
Coriolus versicolor = assay: microbe, parasite or virus in culture; conditions: Trametes versicolor, 72 h, read-out: % efficacy
Pyricularia oryzae [1] = assay: microbe, parasite or virus in culture; type: cell-based; conditions: 72 h, read-out: % efficacy
Pyricularia oryzae [2] = assay: microbe, parasite or virus in culture; type: cell-based; conditions: 72 h, read-out: % efficacy; remark: listed apart in the source
Pyricularia oryzae [3] = assay: microbe, parasite or virus in culture; type: cell-based; conditions: 120 h, read-out: % efficacy
Pyricularia oryzae [4] = assay: microbe, parasite or virus in culture; type: cell-based; conditions: 96 h, read-out: % efficacy
Botrytis cinerea = Botrytis cinerea test (in vitro)/microtiter plates, Example 5; type: cell-based; conditions: 72 h, single active compound, spore suspension in PDB, 3 days incubation, ipconazole as commercially available formulation, read-out: % efficacy

## O=C(Nc1ccccc1-c1ccc(Cl)cc1)c1cccnc1Cl [boscalid]
Rhizoctonia solani
  Emax at 0.1 ppm: 67%

## CC1COC(Cn2cncn2)(c2ccc(Oc3ccc(Cl)cc3)cc2Cl)O1 (centres unmarked) [difenoconazole]
Coriolus versicolor
  Emax at 0.03 ppm: 93%

## CO/N=C(/C1=NOCCO1)c1ccccc1Oc1ncnc(Oc2ccccc2Cl)c1F [fluoxastrobin]
Coriolus versicolor
  Emax at 0.03 ppm: 24%
Pyricularia oryzae [1]
  Emax at 0.1 ppm: 80%
Rhizoctonia solani
  Emax at 0.1 ppm: 64%
Pyricularia oryzae [2]
  Emax at 0.3 ppm: 84%
Pyricularia oryzae [3]
  Emax at 0.3 ppm: 86%
Pyricularia oryzae [4]
  Emax at 0.1 ppm: 82%
Botrytis cinerea
  Emax at 0.003 ppm: 9%

## OC(Cn1cncn1)(c1ccc(F)cc1)c1ccccc1F (centres unmarked) [flutriafol]
Pyricularia oryzae [3]
  Emax at 0.3 ppm: 6%

## CC(C)C1CCC(Cc2ccc(Cl)cc2)C1(O)Cn1cncn1 (centres unmarked) [ipconazole]
Botrytis cinerea
  Emax at 0.003 ppm: 3%

## COCC(=O)N(c1c(C)cccc1C)[C@H](C)C(=O)OC [mefenoxam, metalaxyl-M]
Pyricularia oryzae [2]
  Emax at 0.3 ppm: 16%

## CCCCC(C#N)(Cn1cncn1)c1ccc(Cl)cc1 (centres unmarked) [myclobutanil]
Pyricularia oryzae [4]
  Emax at 0.1 ppm: 4%

## C=CCNC(=O)c1c([Si](C)(C)C)sc(C)c1C [silthiofam]
Pyricularia oryzae [1]
  Emax at 0.1 ppm: 1%
